Assay results taken from PubChem BioAssay (NCI).
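All cell lines were grown in 96-well plates and treated with compound for 48 hours. TGI: total growth inhibition.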

Tests used:
Test in all cases: inhibition of tumour cell growth, NCI panel, 48 h
COLO 205 colon = system: COLO 205 colon
K-562 leukemia = system: K-562 leukemia
TK-10 renal = system: TK-10 renal
HOP-18 NSCLC = system: HOP-18 NSCLC
SF-539 CNS = system: SF-539 CNS
HCC-2998 colon = system: HCC-2998 colon
NCI-H23 lung = system: NCI-H23 lung
UO-31 renal = system: UO-31 renal
KM20L2 colon = system: KM20L2 colon
MALME-3M melanoma = system: MALME-3M melanoma
XF 498 CNS = system: XF 498 CNS
RXF-631 renal = system: RXF-631 renal
A498 renal = system: A498 renal
IGROV1 ovarian = system: IGROV1 ovarian
HT29 colon = system: HT29 colon
DLD-1 colon = system: DLD-1 colon
OVCAR-3 ovarian = system: OVCAR-3 ovarian
HOP-92 NSCLC = system: HOP-92 NSCLC
NCI-H522 lung = system: NCI-H522 lung
CCRF-CEM leukemia = system: CCRF-CEM leukemia
OVCAR-5 ovarian = system: OVCAR-5 ovarian
KM12 colon = system: KM12 colon
RXF 393 renal = system: RXF 393 renal
HCT-15 colon = system: HCT-15 colon
ACHN renal = system: ACHN renal
SK-MEL-5 melanoma = system: SK-MEL-5 melanoma
HCT-116 colon = system: HCT-116 colon
M14 melanoma = system: M14 melanoma
OVCAR-4 ovarian = system: OVCAR-4 ovarian
EKVX NSCLC = system: EKVX NSCLC
UACC-257 melanoma = system: UACC-257 melanoma
OVCAR-8 ovarian = system: OVCAR-8 ovarian
NCI-H226 lung = system: NCI-H226 lung
HOP-62 NSCLC = system: HOP-62 NSCLC
CAKI-1 renal = system: CAKI-1 renal
RPMI-8226 leukemia = system: RPMI-8226 leukemia
UACC-62 melanoma = system: UACC-62 melanoma
LXFL 529 NSCLC = system: LXFL 529 NSCLC
SK-OV-3 ovarian = system: SK-OV-3 ovarian
SNB-78 CNS = system: SNB-78 CNS
SN12C renal = system: SN12C renal
SK-MEL-28 melanoma = system: SK-MEL-28 melanoma
M19-MEL melanoma = system: M19-MEL melanoma
SF-295 CNS = system: SF-295 CNS
SR leukemia = system: SR leukemia
SW-620 colon = system: SW-620 colon
HL-60(TB) leukemia = system: HL-60(TB) leukemia
SNB-75 CNS = system: SNB-75 CNS
786-0 renal = system: 786-0 renal
A549 NSCLC = system: A549 NSCLC
SK-MEL-2 melanoma = system: SK-MEL-2 melanoma
NCI-H460 lung = system: NCI-H460 lung
MOLT-4 leukemia = system: MOLT-4 leukemia
DMS 273 small cell lung = system: DMS 273 small cell lung
SNB-19 CNS = system: SNB-19 CNS
SF-268 CNS = system: SF-268 CNS
U251 CNS = system: U251 CNS
LOX IMVI melanoma = system: LOX IMVI melanoma
DMS 114 small cell lung = system: DMS 114 small cell lung

Measured: TGI

N#CCC(=O)Nc1ccccc1O
not listed: LOX IMVI melanoma | DMS 114 small cell lung
> 100 µM: all other assays above

CC[P+]1(c2ccccc2)CCCCC1
not listed: XF 498 CNS | A498 renal | NCI-H522 lung
> 100 µM: all other assays above

COC(=O)C(C#N)C1NC(=O)c2ccccc21 (stereo not drawn)
not listed: XF 498 CNS | CAKI-1 renal | LXFL 529 NSCLC | SK-MEL-2 melanoma
> 100 µM: all other assays above
